Experiments:
Test in all cases: FRET quenching titration (qPCR instrument)
Conditions in all cases: 150 mM KCl, 15 mM NaCl; 20 mM Tris pH 7.4, 37 °C, 1 µM DNA; duplex shifted to quadruplex, complete at 50 µM pyridostatin
[1] = system: A:Gap (Tel22-T annealed to two shorter complements, one-base gap) (DNA, duplex, 5'-phosphate on strand 3; one-base gap between strands 2 and 3) AGGGTTAGGGTTAGGGTTAGGG/CCCTAACCC/AACCCTAACCCT
[2] = system: A:U (Tel22-T annealed to U-containing complement) (DNA, duplex, 2'-deoxyuridine at 10 of strand 2) AGGGTTAGGGTTAGGGTTAGGG/CCCTAACCCUAACCCTAACCCT
[3] = system: A:THF (Tel22-T annealed to complement with abasic site) (DNA, mismatch bulge abasic, tetrahydrofuran (THF) abasic site at 10 of strand 2) AGGGTTAGGGTTAGGGTTAGGG/CCCTAACCCNAACCCTAACCCT

Measured: binding

NCCOc1cc(C(=O)Nc2cc(OCCN)c3ccccc3n2)nc(C(=O)Nc2cc(OCCN)c3ccccc3n2)c1
yes: all assays above

— publication PMC9920732 (2023)
